Experimental data published in ChEMBL document CHEMBL4425144, “Discovery and Structural Optimization of N5-Substituted 6,7-Dioxo-6,7-dihydropteridines as Potent and Selective Epidermal Growth Factor Receptor (EGFR) Inhibitors against L858R/T790M Resistance Mutation” (J Med Chem, 2016).
Converted amounts (≈) assume the structure as drawn.

Key:
[1] = system: A-431; assay: Antitumor activity against human A431 cells xenografted in BALB/c mouse assessed as inhibition of tumor growth at 25 mg/kg, po qd for 14 consecutive days; assay type: functional; conditions: A-431, po, read-out: TGI
[2] = target: Epidermal growth factor receptor (Homo sapiens, UniProt P00533); assay: Inhibition of wild type EGFR kinase domain (unknown origin) expressed using baculovirus expression system incubated for 1 hr using Poly(Glu,Tyr) 4:1 by ELISA method
[3] = target: Epidermal growth factor receptor (Homo sapiens, UniProt P00533, L858R/T790M); assay: Inhibition of EGFR kinase domain L858R/T790M mutant (unknown origin) expressed using baculovirus expression system incubated for 1 hr using Poly(Glu,Tyr) 4:1 by ELISA method
[4] = system: A-431; assay: Antiproliferative activity against human A431 cells incubated for 72 hrs by SRB assay; assay type: functional, cell-based; conditions: A-431, 72 h
[5] = system: NCI-H1975; assay: Antiproliferative activity against human NCI-H1975 cells incubated for 72 hrs by SRB assay; assay type: functional, cell-based; conditions: NCI-H1975, 72 h
[6] = Dissociation constant, pKa of the compound by Sirius T3 based assay; assay type: physicochemical
[7] = Thermodynamic solubility of the compound in 0.1M PBS buffer at pH 7.4 by UV-visible spectrophotometry; assay type: physicochemical; conditions: read-out: Therm_solubility

Epidermal growth factor receptor (Homo sapiens, UniProt P00533), sequence (P00533 whole entry, the tested form may be a part): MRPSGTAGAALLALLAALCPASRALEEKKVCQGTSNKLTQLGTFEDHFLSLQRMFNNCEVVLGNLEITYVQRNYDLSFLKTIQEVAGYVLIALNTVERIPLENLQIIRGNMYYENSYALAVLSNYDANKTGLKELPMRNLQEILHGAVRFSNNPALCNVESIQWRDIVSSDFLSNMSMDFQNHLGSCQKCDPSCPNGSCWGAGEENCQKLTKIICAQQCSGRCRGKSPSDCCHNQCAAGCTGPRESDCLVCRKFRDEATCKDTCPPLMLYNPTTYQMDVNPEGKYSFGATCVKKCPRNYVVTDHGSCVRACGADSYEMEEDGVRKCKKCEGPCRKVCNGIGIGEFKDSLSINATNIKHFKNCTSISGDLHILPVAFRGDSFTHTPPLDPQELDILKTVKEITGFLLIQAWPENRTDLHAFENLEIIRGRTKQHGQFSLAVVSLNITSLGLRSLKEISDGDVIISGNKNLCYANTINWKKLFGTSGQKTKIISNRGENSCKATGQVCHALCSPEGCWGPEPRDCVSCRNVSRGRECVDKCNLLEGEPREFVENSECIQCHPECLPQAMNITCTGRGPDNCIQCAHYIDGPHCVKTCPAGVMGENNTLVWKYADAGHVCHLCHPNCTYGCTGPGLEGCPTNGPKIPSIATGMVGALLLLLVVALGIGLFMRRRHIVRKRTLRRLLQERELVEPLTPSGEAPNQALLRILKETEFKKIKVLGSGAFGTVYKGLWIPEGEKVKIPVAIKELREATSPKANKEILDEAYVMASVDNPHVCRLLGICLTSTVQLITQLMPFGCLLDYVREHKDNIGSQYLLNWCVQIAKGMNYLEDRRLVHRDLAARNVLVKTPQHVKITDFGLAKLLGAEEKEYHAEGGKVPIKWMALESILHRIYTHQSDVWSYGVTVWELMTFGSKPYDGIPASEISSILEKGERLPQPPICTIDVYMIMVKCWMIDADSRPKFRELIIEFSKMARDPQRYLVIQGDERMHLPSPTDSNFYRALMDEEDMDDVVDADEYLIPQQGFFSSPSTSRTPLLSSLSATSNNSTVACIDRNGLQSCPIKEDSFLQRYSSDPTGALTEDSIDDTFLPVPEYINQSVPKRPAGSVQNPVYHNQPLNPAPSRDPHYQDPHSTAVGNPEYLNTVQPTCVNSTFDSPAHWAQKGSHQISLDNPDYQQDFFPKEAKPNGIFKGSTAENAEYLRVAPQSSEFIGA
Epidermal growth factor receptor (Homo sapiens, UniProt P00533, L858R/T790M), sequence (P00533 25-1210 T790M/L858R limits assumed): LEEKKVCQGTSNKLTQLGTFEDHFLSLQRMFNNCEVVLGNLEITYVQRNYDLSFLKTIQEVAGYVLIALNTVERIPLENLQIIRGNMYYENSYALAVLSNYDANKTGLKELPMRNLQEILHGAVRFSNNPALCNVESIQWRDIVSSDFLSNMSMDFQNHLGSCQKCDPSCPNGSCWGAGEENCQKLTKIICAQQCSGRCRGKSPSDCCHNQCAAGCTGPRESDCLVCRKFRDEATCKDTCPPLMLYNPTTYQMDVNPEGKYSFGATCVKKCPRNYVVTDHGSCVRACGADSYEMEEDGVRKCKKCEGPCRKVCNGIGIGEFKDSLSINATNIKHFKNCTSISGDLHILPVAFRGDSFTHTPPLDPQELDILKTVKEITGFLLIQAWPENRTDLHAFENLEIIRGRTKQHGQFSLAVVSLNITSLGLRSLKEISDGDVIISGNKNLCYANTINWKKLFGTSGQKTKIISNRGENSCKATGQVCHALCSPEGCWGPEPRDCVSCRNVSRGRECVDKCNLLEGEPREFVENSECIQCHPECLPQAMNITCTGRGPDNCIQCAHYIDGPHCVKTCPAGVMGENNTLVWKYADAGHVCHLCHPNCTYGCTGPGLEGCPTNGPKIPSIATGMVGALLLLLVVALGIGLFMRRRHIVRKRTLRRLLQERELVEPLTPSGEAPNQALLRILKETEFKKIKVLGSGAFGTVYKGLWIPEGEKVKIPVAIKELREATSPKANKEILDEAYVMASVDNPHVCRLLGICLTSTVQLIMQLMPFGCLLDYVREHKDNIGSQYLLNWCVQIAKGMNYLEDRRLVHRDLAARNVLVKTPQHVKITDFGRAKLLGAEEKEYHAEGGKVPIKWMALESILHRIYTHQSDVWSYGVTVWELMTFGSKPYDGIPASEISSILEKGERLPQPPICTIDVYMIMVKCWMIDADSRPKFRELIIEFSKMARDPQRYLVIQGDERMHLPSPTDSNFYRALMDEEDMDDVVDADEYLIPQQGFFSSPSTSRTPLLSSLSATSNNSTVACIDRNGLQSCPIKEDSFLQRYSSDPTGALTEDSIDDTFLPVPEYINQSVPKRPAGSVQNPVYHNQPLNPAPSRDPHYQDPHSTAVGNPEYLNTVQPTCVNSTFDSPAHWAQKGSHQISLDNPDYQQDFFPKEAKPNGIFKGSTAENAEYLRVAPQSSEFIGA

SMILES | inhibition in vivo at 25 mg/kg [1] [%] | IC50 [2] [µM] | IC50 [3] [µM] | IC50 [4] [µM] | IC50 [5] [µM] | pKa [6] | solubility thermodynamic [7] [µg/mL]
CN(C)C/C=C/C(=O)Nc1cc2c(Nc3ccc(F)c(Cl)c3)ncnc2cc1O[C@H]1CCOC1 [AFATINIB] | 94 | – | – | – | – | – | –
C=CC(=O)Nc1cccc(-n2c(=O)c(=O)n(C(C)C)c3cnc(Nc4ccc(N5CCN(C)CC5)c(OC)c4)nc32)c1 | – | 0.0086 | 0.0013 | 0.669 | 0.213 | 8.4 | 298 (≈ 522 µM)
C=CC(=O)Nc1cccc(-n2c(=O)c(=O)n(C(C)C)c3cnc(Nc4ccc(OCCN(C)C)cc4OC)nc32)c1 | – | 0.068 | 0.143 | 1.5 | 0.415 | 8.8 | 437 (≈ 781 µM)
C=CC(=O)Nc1cccc(-n2c(=O)c(=O)n(C)c3cnc(Nc4ccc(N5CCN(C)CC5)cc4OC)nc32)c1 | – | 0.474 | 0.0047 | > 10 | 1.77 | 7.3 | 392 (≈ 722 µM)
C=CC(=O)Nc1cccc(-n2c(=O)c(=O)n(CCC)c3cnc(Nc4ccc(N5CCN(C)CC5)cc4OC)nc32)c1 | – | 0.0022 | 0.0006 | 2.14 | 0.119 | 7.5 | < 10
C=CC(=O)Nc1cccc(-n2c(=O)c(=O)n(CC)c3cnc(Nc4ccc(N5CCN(C)CC5)cc4OC)nc32)c1 | – | 0.081 | 0.0012 | 8.81 | 0.126 | 7.4 | < 10
C=CC(=O)Nc1cccc(-n2c(=O)c(=O)n(C(C)C)c3cnc(Nc4ccc(N(C)CCN(C)C)cc4OC)nc32)c1 | – | 0.223 | 0.017 | 1.53 | 0.44 | 8.9 | 1620 (≈ 2830 µM)
C=CC(=O)Nc1cccc(-n2c(=O)c(=O)[nH]c3cnc(Nc4ccc(N5CCN(C)CC5)cc4OC)nc32)c1 | – | 0.0028 | 0.0025 | > 10 | > 10 | 7.8 | 839 (≈ 1590 µM)
C=CC(=O)Nc1cccc(-n2c(=O)c(=O)n(C(C)C)c3cnc(Nc4ccc(N5CCC(N6CCN(C)CC6)CC5)cc4OC)nc32)c1 | – | 0.028 | 0.0078 | 2.26 | 1.19 | 8.8 | 109 (≈ 167 µM)
C=CC(=O)Nc1cccc(-n2c(=O)c(=O)n(C(C)C)c3cnc(Nc4ccc(N5CCN(C)CC5)c(C)c4)nc32)c1 | – | 0.0014 | 0.0015 | 0.309 | 0.151 | 8.1 | 190 (≈ 343 µM)
